“Also recorded” adds a separate entry of the source.
Tests used:
[1] = test system: mice with ischemic AKI; test: renal ischemia-reperfusion injury model: renal function (serum creatinine, NGAL, KIM-1); format: in vivo; details: IRI mice, single pre-IRI dose
[2] = test system: PGE2 receptors (EP1, EP2, EP3 and EP4) and adenosine receptor (A2A); test: renal IRI model: PGE2 receptors (EP1-EP4) and adenosine A2A receptor levels; format: in vivo, mice
Description: (§1) Mice were anesthetized with isoflurane using a vaporizer and placed on a heating pad to maintain their body temperature at 37° C. Both renal arteries were identified through dorsal incisions and clamped for 20, 30, 35, or 37 minutes. Reperfusion was confirmed visually upon release of the clamps. Surgical wounds were closed, and mice were administered 1 mL of saline i.p. The mice were kept in a warm incubator until they regained consciousness and were allowed to recover with ad libitum access to food and water. […] Serum and kidney tissue were collected 24 hours after renal IRI.
PGE2 receptors (EP1, EP2, EP3 and EP4) and adenosine receptor (A2A) mRNA levels were determined by real-time PCR with SYBR green PCR Master Mix and the primers listed in Table 1. Their protein levels were determined by western blotting assay and immunofluorescence analysis.

[3] = test system: cAMP/AMP/adenosine signaling pathway; test: renal IRI model: cAMP, AMP and adenosine levels; format: in vivo; details: IRI mice
Description: as §1
After reperfusion for 24 hours, kidney tissues were harvested, homogenized in 10 volumes of 0.1 M HCl, and centrifuged for 10 minutes at 12,000 rpm. The protein concentration was determined by BCA assay. cAMP levels in kidney tissues were measured using a cAMP Complete ELISA Kit (ADI-900-163; Enzo Life Science) an adenosine Assay Kit (KA4547; abnova) and high-performance liquid chromatography (HPLC).

[4] = test system: malondialdehyde (MDA); test: renal IRI model: malondialdehyde (MDA) in kidney tissue; format: in vivo; details: IRI mice, single pre-IRI dose; vehicle peak 48% at 2 hours
Description: Mice were anesthetized with isoflurane using a vaporizer and placed on a heating pad to maintain their body temperature at 37° C. Both renal arteries were identified through dorsal incisions and clamped for 20, 30, 35, or 37 minutes. Reperfusion was confirmed visually upon release of the clamps. Surgical wounds were closed, and mice were administered 1 mL of saline i.p. The mice were kept in a warm incubator until they regained consciousness and were allowed to recover with ad libitum access to food and water. […]
Reactive oxygen species (ROS) levels were determined by measurement of malondialdehyde (MDA), the end product of lipid peroxidation in […]. Free MDA reacts with thiobarbituric acid (TBA) at 95° C. to generate an MDA-TBA adduct, which can be quantified colorimetrically at a wavelength of 532 nm. MDA levels were measured in kidney lysates using a lipid peroxidation (MDA) assay kit (ab118970; Abcam). Results were corrected for total protein level and are expressed as […].

[5] = test system: mice with ischemic AKI; test: survival and body weight over 7 days after renal IRI; format: in vivo; details: bilateral IRI 30 minutes, 5 mg/kg i.p. once pre-IRI then twice daily for 7 days
Description: (A) Experimental setup for toxicity. Ischemic AKI induced by bilaterally clamping the renal arteries for 30 minutes, followed by reperfusion. […] (n=10 per group). (B, C) Survival curves and body weight over 7 days. Kaplan-Meier analysis of survival stratified by AKI stage. Data are means±SEM. *P<0.05 vs. corresponding BI30_vehicle.

[6] = test system: HMGB1 and proinflammatory cytokines; test: renal IRI model: HMGB1 and cytokine levels; format: in vivo; details: mice
Description: as §1
Inflammatory cytokine mRNA and protein levels were measured by real-time PCR and ELISA, respectively. Kidney tissue and serum were harvested after reperfusion for 24 h. Total RNA was extracted from frozen kidney tissue using TRIzol reagent (15596018; Invitrogen), according to the manufacturer's protocol. RNA was converted to cDNA using oligo-dT primers. IL-17, TNF-α, and […] levels were determined by real-time PCR with SYBR green PCR Master Mix and the primers listed in Table 1. For ELISA, frozen kidney tissues were homogenized in phosphate buffer. Serum IL-17 (M1700; R&D Systems), TNF-α (MTAOOB; R&D Systems), and IL-10β (MLBOOC; R&D Systems) were measured using commercial ELISA kits according to the manufacturer's instructions.

[7] = test system: PGE2 levels; test: renal IRI model: time course of PGE2 in kidney tissue and serum; format: in vivo, mice
Description: as §1
[…] Next, the kidney tissues (˜20 mg) were homogenized in 500 μL of cold PBS containing indomethacin (10 μg/mL) using a tissue homogenizer. The suspension was sonicated in an ice-water bath for 1 minute using cycles of 10 seconds of sonication with 10 seconds of cooling, and they were then centrifuged for 10 minutes at 12,000 rpm. The supernatant was collected for PGE2 assay. Protein concentrations were determined by BCA assay (23225; Thermo Scientific). The PGE2 level in the supernatant was measured using a PGE2 ELISA Kit (SKGE004B; R&D Systems) in triplicate. PGE2 levels were expressed as ng PGE2/mg protein.

[8] = stability on incubation with hepatocyte extracts; format: in vitro ADME
[9] = test system: mice with ischemic AKI; test: renal IRI model: necrotic and apoptotic cell death in the outer medulla; format: in vivo
Description: as §1
To evaluate necrosis, 5-μm-thick paraffin sections were stained with H&E. Tubular injury was scored semi quantitatively according to a scoring system by a pathologist who examined at least 20 separate fields (×400) in the outer medulla, which is the zone most sensitive to ischemic injury. The scoring system was as follows: 0, no damage; 1, patchy isolated unicellular necrosis; 2, tubular necrosis <25%; 3, tubular necrosis 25-50%; and 4, tubular necrosis >50%. At least 20 consecutive high-power fields (magnification, ×400) per section were scored by two operators blind to the details of the experiment. To analyze the frequency of apoptosis, 5-μm-thick paraffin sections were subjected to terminal deoxynucleotidyl transferase-mediated dUTP nick-end labeling (TUNEL) assay (APT110; Millipore) according to the manufacturer's protocol. TUNEL-positive cells were counted in at least five separate fields (×640 magnification) in the outer medulla, and the apoptosis index (%, number of apoptosis cells/total number of cells) was calculated using GENASIS software.

[10] = IRI mice, pretreatment, 0.5 hours, mRNA in kidney tissue
[11] = kidney tissue, in comparison to sham and to IRI mice
[12] = real-time PCR and ELISA, 3 doses 5 mg/kg
[13] = real-time PCR at POD1, vs IRI-vehicle

CCCC[S+]([O-])c1sc2nc(-c3cccs3)cc(-c3ccccc3)c2c1N (centres unmarked) [SW033291]
induction of KIM-1 (time course) [1]: notably effective blockade of induction | induction of creatinine (time course) [1]: notably effective blockade of induction | reduction of peak induction of NGAL ([1]; peak at 12 hours): 20% | increase of A2A receptor over baseline [2, 10]: 1.6 fold | increase of EP4 receptor over baseline [2, 10]: 2.4 fold | EP1 receptor mRNA ([2]; kidney tissue, IRI mice): without effecting | EP2 receptor mRNA ([2]; kidney tissue, IRI mice): without effecting | EP3 receptor mRNA ([2]; kidney tissue, IRI mice): without effecting | increase of EP4 receptor mRNA and protein levels [2, 11]: up to 2.3 fold | levels of the adenosine A2A receptor protein [2, 11]: induced | levels of adenosine in the kidney [3]: increased | levels of serum adenosine [3]: significantly increased | AMP level in kidney tissue ([3]; decrease after IRI vs sham): substantially reversed | cAMP level in kidney tissue ([3]; decrease after IRI vs sham): substantially reversed | increase of malondialdehyde (MDA) above baseline [4]: 14% | body weight at POD7 [5]: regained greater weights than did vehicle treated mice | survival [5]: survived at 7 days | IL-1B protein ([6]; ELISA, 3 doses 5 mg/kg): reductions | reduction of HMGB1 protein level compared to the IRI-vehicle group ([6]; kidney tissue, western blot, 3 doses 5 mg/kg): 30% | induction of IL-17 [6, 12]: blockade of induction | induction of TNF-α [6, 12]: blockade of induction | IL-24 mRNA [6, 13]: significantly induces | anti-inflammatory cytokine IL-4 mRNA [6, 13]: significantly induces | anti-inflammatory cytokine IL-10 mRNA [6, 13]: significantly induces | serum PGE2 level ([7]; BI30 mice at 24 hours, prophylaxis): significantly decreased | post-IRI peaks of renal PGE2 at 0.5 and 14 hours ([7]; IRI mice, single pre-IRI dose, kidney tissue): substantially block | renal PGE2 peak over baseline before IRI ([7]; mice, single pre-IRI dose, kidney tissue): 5.12 fold | chemical stability when incubated with hepatocyte extracts [8]: chemically stable | histologic renal injury score ([9]; 3 doses 5 mg/kg i.p., POD1, H&E, outer medulla): reducing | count of TUNEL positive apoptotic cells ([9]; 3 doses 5 mg/kg i.p., POD1, outer medulla): reducing | tissue congestion in the outer medulla (gross pathology) ([9]; 3 doses 5 mg/kg i.p., POD1, vs IRI-vehicle): ameliorated | renal injury (histopathology, tubular injury) ([9]; 3 doses 5 mg/kg, POD1, 5 mg/kg): markedly alleviated renal injury; also recorded: more effective than systemic administration of either exogenous PGE1 or PGE2

— US20250325524A1, “COMPOSITIONS AND METHODS FOR TREATING RENAL INJURY” (CASE WESTERN RESERVE UNIVERSITY, priority 2018, published 2025)
